#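 Briefly, cells in 96-well plates were exposed to five compound concentrations for 48 h, and endpoints were estimated by linear interpolation. GI50: concentration for 50% inhibition of growth. The concentration for full growth arrest is given as TGI.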
# Assays:
# Assay in all cases: inhibition of tumour cell growth, NCI panel, 48 h
# 786-0 renal = tested on: 786-0 renal
# A498 renal = tested on: A498 renal
# A549 NSCLC = tested on: A549 NSCLC
# ACHN renal = tested on: ACHN renal
# BT-549 breast = tested on: BT-549 breast
# CAKI-1 renal = tested on: CAKI-1 renal
# CCRF-CEM leukemia = tested on: CCRF-CEM leukemia
# COLO 205 colon = tested on: COLO 205 colon
# DU-145 prostate = tested on: DU-145 prostate
# HCT-116 colon = tested on: HCT-116 colon
# HCT-15 colon = tested on: HCT-15 colon
# HL-60(TB) leukemia = tested on: HL-60(TB) leukemia
# HOP-62 NSCLC = tested on: HOP-62 NSCLC
# HOP-92 NSCLC = tested on: HOP-92 NSCLC
# HS 578T breast = tested on: HS 578T breast
# HT29 colon = tested on: HT29 colon
# IGROV1 ovarian = tested on: IGROV1 ovarian
# KM12 colon = tested on: KM12 colon
# LOX IMVI melanoma = tested on: LOX IMVI melanoma
# M14 melanoma = tested on: M14 melanoma
# MALME-3M melanoma = tested on: MALME-3M melanoma
# MCF7 breast = tested on: MCF7 breast
# MDA-MB-231 breast = tested on: MDA-MB-231 breast
# MDA-MB-435 = tested on: MDA-MB-435
# MOLT-4 leukemia = tested on: MOLT-4 leukemia
# NCI-H226 lung = tested on: NCI-H226 lung
# NCI-H23 lung = tested on: NCI-H23 lung
# NCI-H460 lung = tested on: NCI-H460 lung
# NCI-H522 lung = tested on: NCI-H522 lung
# NCI/ADR-RES ovarian = tested on: NCI/ADR-RES ovarian
# OVCAR-3 ovarian = tested on: OVCAR-3 ovarian
# OVCAR-4 ovarian = tested on: OVCAR-4 ovarian
# OVCAR-5 ovarian = tested on: OVCAR-5 ovarian
# OVCAR-8 ovarian = tested on: OVCAR-8 ovarian
# PC-3 prostate = tested on: PC-3 prostate
# RPMI-8226 leukemia = tested on: RPMI-8226 leukemia
# RXF 393 renal = tested on: RXF 393 renal
# SF-268 CNS = tested on: SF-268 CNS
# SF-295 CNS = tested on: SF-295 CNS
# SF-539 CNS = tested on: SF-539 CNS
# SK-MEL-2 melanoma = tested on: SK-MEL-2 melanoma
# SK-MEL-28 melanoma = tested on: SK-MEL-28 melanoma
# SK-MEL-5 melanoma = tested on: SK-MEL-5 melanoma
# SK-OV-3 ovarian = tested on: SK-OV-3 ovarian
# SN12C renal = tested on: SN12C renal
# SNB-19 CNS = tested on: SNB-19 CNS
# SNB-75 CNS = tested on: SNB-75 CNS
# SR leukemia = tested on: SR leukemia
# SW-620 colon = tested on: SW-620 colon
# T-47D breast = tested on: T-47D breast
# TK-10 renal = tested on: TK-10 renal
# U251 CNS = tested on: U251 CNS
# UACC-257 melanoma = tested on: UACC-257 melanoma
# UACC-62 melanoma = tested on: UACC-62 melanoma
# UO-31 renal = tested on: UO-31 renal
# HCC-2998 colon = tested on: HCC-2998 colon
# K-562 leukemia = tested on: K-562 leukemia
smiles,measurement,setting,value
COC1C=COC2(C)Oc3c(C)c(O)c4c(O)c(c(C5SCCS5)c(O)c4c3C2=O)NC(=O)/C(C)=C\C=CC(C)C(O)C(C)C(O)C(C)C(OC(C)=O)C1C (configuration not stated),TGI,786-0 renal,48.4 µM
same,TGI,A498 renal,26.5 µM
same,TGI,A549 NSCLC,22.4 µM
same,TGI,ACHN renal,10.7 µM
same,TGI,BT-549 breast,16.2 µM
same,TGI,CAKI-1 renal,22.8 µM
same,TGI,CCRF-CEM leukemia,5.33 µM
same,TGI,COLO 205 colon,6.79 µM
same,TGI,DU-145 prostate,13.1 µM
same,TGI,HCT-116 colon,48.7 µM
same,TGI,HCT-15 colon,21.8 µM
same,TGI,HL-60(TB) leukemia,12.5 µM
same,TGI,HOP-62 NSCLC,46 µM
same,TGI,HOP-92 NSCLC,26.1 µM
same,TGI,HS 578T breast,40.6 µM
same,TGI,HT29 colon,13 µM
same,TGI,IGROV1 ovarian,22.4 µM
same,TGI,KM12 colon,30.6 µM
same,TGI,LOX IMVI melanoma,4.57 µM
same,TGI,M14 melanoma,27.5 µM
same,TGI,MALME-3M melanoma,26.7 µM
same,TGI,MCF7 breast,24.2 µM
same,TGI,MDA-MB-231 breast,18.9 µM
same,TGI,MDA-MB-435,16.1 µM
same,TGI,MOLT-4 leukemia,4.43 µM
same,TGI,NCI-H226 lung,21.8 µM
same,TGI,NCI-H23 lung,18.4 µM
same,TGI,NCI-H460 lung,18 µM
same,TGI,NCI-H522 lung,24.2 µM
same,TGI,NCI/ADR-RES ovarian,34.6 µM
same,TGI,OVCAR-3 ovarian,20.4 µM
same,TGI,OVCAR-4 ovarian,20.5 µM
same,TGI,OVCAR-5 ovarian,27.8 µM
same,TGI,OVCAR-8 ovarian,26 µM
same,TGI,PC-3 prostate,20 µM
same,TGI,RPMI-8226 leukemia,8.58 µM
same,TGI,RXF 393 renal,24.1 µM
same,TGI,SF-268 CNS,32 µM
same,TGI,SF-295 CNS,17.6 µM
same,TGI,SF-539 CNS,20.9 µM
same,TGI,SK-MEL-2 melanoma,24.6 µM
same,TGI,SK-MEL-28 melanoma,20.8 µM
same,TGI,SK-MEL-5 melanoma,20.8 µM
same,TGI,SK-OV-3 ovarian,27.7 µM
same,TGI,SN12C renal,10.1 µM
same,TGI,SNB-19 CNS,17.7 µM
same,TGI,SNB-75 CNS,20.5 µM
same,TGI,SR leukemia,7.14 µM
same,TGI,SW-620 colon,20.1 µM
same,TGI,T-47D breast,11.7 µM
same,TGI,TK-10 renal,14.2 µM
same,TGI,U251 CNS,14.5 µM
same,TGI,UACC-257 melanoma,17.8 µM
same,TGI,UACC-62 melanoma,19.2 µM
same,TGI,UO-31 renal,26.7 µM
O=C(/C=C/c1ccccn1)c1ccc(OCc2nnc(-c3ccc(Cl)cc3)o2)cc1,GI50,786-0 renal,1.78 µM
same,TGI,786-0 renal,3.23 µM
same,GI50,A498 renal,4.5 µM
same,TGI,A498 renal,17.2 µM
same,GI50,A549 NSCLC,2.06 µM
same,TGI,A549 NSCLC,4.82 µM
same,GI50,ACHN renal,1.66 µM
same,TGI,ACHN renal,3.11 µM
same,GI50,BT-549 breast,1.92 µM
same,TGI,BT-549 breast,3.46 µM
same,GI50,CAKI-1 renal,1.69 µM
same,TGI,CAKI-1 renal,3.24 µM
same,GI50,CCRF-CEM leukemia,1.83 µM
same,TGI,CCRF-CEM leukemia,5.88 µM
same,GI50,COLO 205 colon,2.23 µM
same,TGI,COLO 205 colon,4.39 µM
same,GI50,DU-145 prostate,1.62 µM
same,TGI,DU-145 prostate,3.02 µM
same,GI50,HCC-2998 colon,1.8 µM
same,TGI,HCC-2998 colon,3.26 µM
same,GI50,HCT-116 colon,0.45 µM
same,TGI,HCT-116 colon,1.62 µM
same,GI50,HCT-15 colon,1.62 µM
same,TGI,HCT-15 colon,3.36 µM
same,GI50,HL-60(TB) leukemia,2.46 µM
same,TGI,HL-60(TB) leukemia,7.68 µM
same,GI50,HOP-62 NSCLC,2.26 µM
same,TGI,HOP-62 NSCLC,5.65 µM
same,GI50,HOP-92 NSCLC,2.35 µM
same,TGI,HOP-92 NSCLC,6.33 µM
same,GI50,HS 578T breast,3.33 µM
same,TGI,HS 578T breast,10.3 µM
same,GI50,HT29 colon,1.85 µM
same,TGI,HT29 colon,3.99 µM
same,GI50,IGROV1 ovarian,1.96 µM
same,TGI,IGROV1 ovarian,3.62 µM
same,GI50,K-562 leukemia,2 µM
same,TGI,K-562 leukemia,4.8 µM
same,GI50,KM12 colon,1.48 µM
same,TGI,KM12 colon,3.3 µM
same,GI50,LOX IMVI melanoma,1.57 µM
same,TGI,LOX IMVI melanoma,3.01 µM
same,GI50,M14 melanoma,1.99 µM
same,TGI,M14 melanoma,3.87 µM
same,GI50,MALME-3M melanoma,2.28 µM
same,TGI,MALME-3M melanoma,4.46 µM
same,GI50,MCF7 breast,0.378 µM
same,TGI,MCF7 breast,1.68 µM
same,GI50,MDA-MB-231 breast,2.27 µM
same,TGI,MDA-MB-231 breast,5.09 µM
same,GI50,MDA-MB-435,1.71 µM
same,TGI,MDA-MB-435,3.6 µM
same,GI50,MOLT-4 leukemia,2.91 µM
same,TGI,MOLT-4 leukemia,6.68 µM
same,GI50,NCI-H226 lung,2.69 µM
same,TGI,NCI-H226 lung,7.79 µM
same,GI50,NCI-H23 lung,2.13 µM
same,TGI,NCI-H23 lung,4.58 µM
same,GI50,NCI-H460 lung,3.24 µM
same,TGI,NCI-H460 lung,11.1 µM
same,GI50,NCI-H522 lung,1.89 µM
same,TGI,NCI-H522 lung,3.94 µM
same,GI50,NCI/ADR-RES ovarian,3.67 µM
same,TGI,NCI/ADR-RES ovarian,41.3 µM
same,GI50,OVCAR-3 ovarian,1.73 µM
same,TGI,OVCAR-3 ovarian,3.25 µM
same,GI50,OVCAR-4 ovarian,3.42 µM
same,TGI,OVCAR-4 ovarian,12.4 µM
same,GI50,OVCAR-5 ovarian,2.49 µM
same,TGI,OVCAR-5 ovarian,4.89 µM
same,GI50,OVCAR-8 ovarian,2.48 µM
same,TGI,OVCAR-8 ovarian,5.57 µM
same,GI50,PC-3 prostate,1.87 µM
same,TGI,PC-3 prostate,3.9 µM
same,GI50,RPMI-8226 leukemia,0.296 µM
same,TGI,RPMI-8226 leukemia,1.06 µM
same,GI50,RXF 393 renal,1.7 µM
same,TGI,RXF 393 renal,3.17 µM
same,GI50,SF-295 CNS,1.68 µM
same,TGI,SF-295 CNS,3.33 µM
same,GI50,SF-539 CNS,1.66 µM
same,TGI,SF-539 CNS,3.09 µM
same,GI50,SK-MEL-2 melanoma,3.29 µM
same,TGI,SK-MEL-2 melanoma,8.61 µM
same,GI50,SK-MEL-28 melanoma,1.77 µM
same,TGI,SK-MEL-28 melanoma,3.36 µM
same,GI50,SK-MEL-5 melanoma,1.56 µM
same,TGI,SK-MEL-5 melanoma,3.14 µM
same,GI50,SK-OV-3 ovarian,3.82 µM
same,TGI,SK-OV-3 ovarian,10.4 µM
same,GI50,SN12C renal,2.41 µM
same,TGI,SN12C renal,5.8 µM
same,GI50,SNB-19 CNS,1.86 µM
same,TGI,SNB-19 CNS,3.98 µM
same,GI50,SNB-75 CNS,1.46 µM
same,TGI,SNB-75 CNS,2.89 µM
same,GI50,SR leukemia,0.291 µM
same,TGI,SR leukemia,1.93 µM
same,GI50,SW-620 colon,1.91 µM
same,TGI,SW-620 colon,3.93 µM
same,GI50,T-47D breast,2.65 µM
same,TGI,T-47D breast,8.64 µM
same,GI50,TK-10 renal,2.68 µM
same,TGI,TK-10 renal,6.24 µM
same,GI50,U251 CNS,1.64 µM
same,TGI,U251 CNS,3.05 µM
same,GI50,UACC-257 melanoma,1.98 µM
same,TGI,UACC-257 melanoma,4.06 µM
same,GI50,UACC-62 melanoma,1.83 µM
same,TGI,UACC-62 melanoma,3.55 µM
same,GI50,UO-31 renal,1.81 µM
same,TGI,UO-31 renal,3.26 µM

# Source: PubChem BioAssay (NCI)
